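Where inhibition never reached the appropriate level, the endpoint shown equals the highest concentration tested. Otherwise, values were interpolated linearly from a five-concentration, 48-hour dose response in 96-well plates. GI50 marks 50% less growth.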 Active and inactive are the calls of the source. Cut-off read from the data, not from the text of the source: active = GI50 up to about 1.1 µM and inactive = higher.
What was measured:
Test in all cases: inhibition of tumour cell growth, NCI panel, 48 h
KM12 = system: KM12
NCI-H226 = system: NCI-H226
SF-295 = system: SF-295
UACC-62 = system: UACC-62
K562 = system: K562
OVCAR-3 = system: OVCAR-3
HOP-62 = system: HOP-62
SF-268 = system: SF-268
HT-29 = system: HT-29
ACHN = system: ACHN
SW-620 = system: SW-620
SR = system: SR
M14 = system: M14
HOP-92 = system: HOP-92
UO-31 = system: UO-31
SNB-19 = system: SNB-19
A549 = system: A549
NCI-H23 = system: NCI-H23
HL-60 = system: HL-60
HCT-116 = system: HCT-116

Measured: GI50

O=C(O)CNC(=O)c1ccccc1O [SALICYLURIC ACID]
inactive: KM12 > 100 µM | NCI-H226 > 100 µM | SF-295 > 100 µM | UACC-62 > 100 µM | K562 > 100 µM | OVCAR-3 > 100 µM | HOP-62 > 100 µM | SF-268 > 100 µM | HT-29 > 100 µM | ACHN > 100 µM | SW-620 > 100 µM | SR > 100 µM | M14 > 100 µM | HOP-92 > 100 µM | UO-31 > 100 µM | SNB-19 > 100 µM | A549 > 100 µM | NCI-H23 > 100 µM | HL-60 > 100 µM | HCT-116 > 100 µM

COc1ccc(NC(=O)CC(=O)N2N=C(N3c4ccccc4Sc4ccccc43)CC2c2ccccc2)cc1 (stereo not given)
inactive: KM12 > 100 µM | NCI-H226 > 100 µM | SF-295 > 100 µM | UACC-62 > 100 µM | K562 > 100 µM | OVCAR-3 > 100 µM | HOP-62 > 100 µM | SF-268 23.4 µM | HT-29 > 100 µM | ACHN > 100 µM | SW-620 > 100 µM | SR > 100 µM | M14 > 100 µM | HOP-92 > 100 µM | UO-31 > 100 µM | SNB-19 > 100 µM | A549 > 100 µM | NCI-H23 > 100 µM | HL-60 > 100 µM | HCT-116 > 100 µM

COc1ccc2nc(-c3ccc(O)cc3)ccc2c1
inactive: KM12 > 100 µM | NCI-H226 > 100 µM | SF-295 > 100 µM | UACC-62 > 100 µM | K562 > 100 µM | OVCAR-3 > 100 µM | HOP-62 > 100 µM | SF-268 1.22 µM | HT-29 > 100 µM | ACHN > 100 µM | SW-620 > 100 µM | SR > 100 µM | M14 > 100 µM | HOP-92 > 100 µM | UO-31 > 100 µM | SNB-19 > 100 µM | A549 > 100 µM | NCI-H23 > 100 µM | HL-60 > 100 µM | HCT-116 > 100 µM

CCOC(=O)C(NC(=O)c1ccccc1)(c1ccc(S(=O)(=O)Nc2onc(C)c2C)cc1)C(F)(F)F (stereo not given)
inactive: KM12 > 100 µM | NCI-H226 > 100 µM | SF-295 > 100 µM | UACC-62 > 100 µM | K562 > 100 µM | OVCAR-3 > 100 µM | HOP-62 > 100 µM | SF-268 > 100 µM | HT-29 > 100 µM | ACHN > 100 µM | SW-620 > 100 µM | SR > 100 µM | M14 > 100 µM | HOP-92 > 100 µM | UO-31 > 100 µM | SNB-19 > 100 µM | A549 > 100 µM | NCI-H23 > 100 µM | HL-60 > 100 µM | HCT-116 > 100 µM
